Patent publication US6444616B1, “Substituted p-trifluoromethylphenyluracils” (Bayer Aktiengesellschaft, priority 1999, dated 2002)
Each block holds one compound with its values, some of them ahead of it.

Columns and labels:
Sinapis [1] = assay: Pre-emergence test; format: in vivo; details: rated after 3 weeks, application rate not stated
Method: (§1) Solvent: 5 parts by weight of acetone
(§2) Emulsifier: 1 part by weight of alkylaryl polyglycol ether
(§3) To produce a suitable preparation of active compound, 1 part by weight of active compound is mixed with the stated amount of solvent, the stated amount of emulsifier is added and the concentrate is diluted with water to the desired concentration.
(§4) Seeds of the test plants are sown in normal soil. After about 24 hours, the soil is sprayed with the preparation of active compound in such a way as to apply the particular amounts of active compound desired per unit area. The concentration of the spray liquor is chosen so that the particular amounts of active compound desired are applied in 1000 l of water/ha.
(§5) After 3 weeks, the degree of damage to plants is rated in % damage in comparison to the development of the untreated control.
(§6) 0%=no effect (like untreated control)

Cyperus = assay: Pre-emergence test; format: in vivo; details: rated after 3 weeks, application rate not stated, 0%=no effect, 100%=total destruction
Method: as §1, §2, §3, §4, §5, §6

Matricaria = assay: Postemergence test; format: in vivo; details: plants 5-15 cm sprayed, rated after 3 weeks, application rate not stated
Method: as §1, §2
(§7) To produce an effective preparation of active compound, 1 part by weight of active compound is mixed with the stated amount of solvent, the stated amount of emulsifier is added and the concentrate is diluted with water to the desired concentration.
as §4, with “Test plants which have a height” for “Seeds”, “5-15 cm” for “the test plants”, “are” for “are sown in normal soil. After about 24 hours, the soil is”
(§8) After 3 weeks, the degree of damage to the plants is rated in % damage in comparison to the development of the untreated control.
as §6

Solanum = assay: Postemergence test; format: in vivo; details: plants 5-15 cm sprayed, rated after 3 weeks, application rate not stated
Method: as §1, §2, §7
as §4, with “Test plants which have a height” for “Seeds”, “5-15 cm” for “the test plants”, “are” for “are sown in normal soil. After about 24 hours, the soil is”
as §8, §6

datura = assay: Postemergence test; format: in vivo; details: plants 5-15 cm sprayed, rated after 3 weeks, application rate not stated
Method: as §1, §2, §7
as §4, with “Test plants which have a height” for “Seeds”, “5-15 cm” for “the test plants”, “are” for “are sown in normal soil. After about 24 hours, the soil is”
as §8, §6

polygonum = assay: Postemergence test; format: in vivo; details: plants 5-15 cm sprayed, rated after 3 weeks, application rate not stated
Method: as §1, §2, §7
as §4, with “Test plants which have a height” for “Seeds”, “5-15 cm” for “the test plants”, “are” for “are sown in normal soil. After about 24 hours, the soil is”
as §8, §6

Abutilon = assay: Postemergence test; format: in vivo; details: plants 5-15 cm sprayed, rated after 3 weeks, application rate not stated
Method: as §1, §2, §7
as §4, with “Test plants which have a height” for “Seeds”, “5-15 cm” for “the test plants”, “are” for “are sown in normal soil. After about 24 hours, the soil is”
as §8, §6

Sinapis [2] = assay: Postemergence test; format: in vivo; details: plants 5-15 cm sprayed, rated after 3 weeks, application rate not stated
Method: as §1, §2, §7
as §4, with “Test plants which have a height” for “Seeds”, “5-15 cm” for “the test plants”, “are” for “are sown in normal soil. After about 24 hours, the soil is”
as §8, §6

Ipomoea = assay: Postemergence test; format: in vivo; details: plants 5-15 cm sprayed, rated after 3 weeks, application rate not stated
Method: as §1, §2, §7
as §4, with “Test plants which have a height” for “Seeds”, “5-15 cm” for “the test plants”, “are” for “are sown in normal soil. After about 24 hours, the soil is”
as §8, §6

melting point: 163 °C
Structure (SMILES): Cn1c(C(F)(F)F)cc(=O)n(-c2cc(NS(C)(=O)=O)c(C(F)(F)F)cc2F)c1=O [Example 5]
degree of damage to plants, % damage vs untreated control (Sinapis [1]): 100% | degree of damage to plants, % damage vs untreated control (Cyperus): 80% | degree of damage to the plants, % damage vs untreated control (Matricaria): 100% | degree of damage to the plants, % damage vs untreated control (Solanum): 100% | degree of damage to the plants, % damage vs untreated control (datura): 100% | degree of damage to the plants, % damage vs untreated control (polygonum): 95% | degree of damage to the plants, % damage vs untreated control (Abutilon): 100% | degree of damage to the plants, % damage vs untreated control (Sinapis [2]): 100% | degree of damage to the plants, % damage vs untreated control (Ipomoea): 100%

melting point: 157 °C
Structure (SMILES): Nn1c(C(F)(F)F)cc(=O)n(-c2cc(F)c(C(F)(F)F)cc2F)c1=O [Example 3, 3-amino-1-(2,5-difluoro-4-trifluoromethyl-phenyl)-3,6-dihydro-2,6-dioxo-4-trifluoromethyl-1 (2H)-pyrimidine]

melting point: 227 °C
Structure (SMILES): CS(=O)(=O)Nc1cc(-n2c(=O)cc(C(F)(F)F)[nH]c2=O)c(F)cc1C(F)(F)F [Example 4]
degree of damage to plants, % damage vs untreated control (Sinapis [1]): 100% | degree of damage to plants, % damage vs untreated control (Cyperus): 80% | degree of damage to the plants, % damage vs untreated control (Matricaria): 100% | degree of damage to the plants, % damage vs untreated control (Solanum): 100% | degree of damage to the plants, % damage vs untreated control (datura): 100% | degree of damage to the plants, % damage vs untreated control (polygonum): 95% | degree of damage to the plants, % damage vs untreated control (Abutilon): 100% | degree of damage to the plants, % damage vs untreated control (Sinapis [2]): 100% | degree of damage to the plants, % damage vs untreated control (Ipomoea): 100%

melting point: 217 °C
Structure (SMILES): O=c1cc(C(F)(F)F)[nH]c(=O)n1-c1cc(F)c(C(F)(F)F)cc1F [Example 1, 1-(2,5-difluoro4-trifluoromethyl-phenyl)-3,6-dihydro-2,6-dioxo-4-trifluoromethyl-1(2H)-pyrimidine]

melting point: 110 °C
Structure (SMILES): Cn1c(C(F)(F)F)cc(=O)n(-c2cc(F)c(C(F)(F)F)cc2F)c1=O [Example 2, 1-(2,5-difluoro-4-trifluoromethyl-phenyl)-3,6-dihydro-2,6-dioxo-3-methyl-4-trifluoromethyl-1 (2H)-pyrimidine]
degree of damage to plants, % damage vs untreated control (Sinapis [1]): 100% | degree of damage to plants, % damage vs untreated control (Cyperus): 80% | degree of damage to the plants, % damage vs untreated control (Matricaria): 100% | degree of damage to the plants, % damage vs untreated control (Solanum): 100% | degree of damage to the plants, % damage vs untreated control (datura): 100% | degree of damage to the plants, % damage vs untreated control (polygonum): 95% | degree of damage to the plants, % damage vs untreated control (Abutilon): 100% | degree of damage to the plants, % damage vs untreated control (Sinapis [2]): 100% | degree of damage to the plants, % damage vs untreated control (Ipomoea): 100%
